Test results as given in US20230102503A1, “BIOMARKERS FOR OXYTOCIN RECEPTOR ANTAGONIST THERAPY” (ObsEva S.A., priority 2020, published 2023).
Values belong to the compound of their own block, whether it stands above or below them.

Columns and labels:
[1] = target: CYP3A4 (Homo sapiens, UniProt P08684); test: metabolism by CYP3A4 isoform; assay type: in vitro ADME
Description: (§1) At five time points over the course of a 45 minute experiment, the compounds were analyzed by LC-MS/MS. The percentage of each compound remaining at each time point, along with the metabolic half-lives of each compound in the presence of each cytochrome P450 isoform, are indicated in Tables 10-12, below.

[2] = crystal form with XRPD peaks of Table 1; cited from earlier work
[3] = system: endometrial perfusion; test: Endometrial perfusion parameters (VI, FI, VFI) after single dose; assay type: in vivo, human; settings: for increase in median endometrial VFI: between pre-dose and 24-hour post-dose
[4] = dispersible tablet formulations; cited from earlier work
[5] = plasma concentration of compound (II) in clinical trial of Example 4; assay type: in vivo, human; settings: oral administration of either the 900 mg or the 1,800 mg dose
Description: (§2) Particularly, subjects were pre-treated with estradiol valerate at a dosage of 2 mg administered 3 times per day (TID) for 16 days. Administration of estradiol valerate was followed by vaginal progesterone at a dosage of 200 mg administered TID.

[6] = system: endometrial RNA transcript expression (DPP4, CNTNAP3, CNTN4, CXCL12, TNXB, CTSE, OLFM4, KRT5, KRT6A, IDO2); test: RNA-Seq assay of endometrial tissue mRNA expression before and after administration; assay type: in vivo, human
Description: Using an RNA-Seq assay, each subject's mRNA expression level of a variety of genes, including DPP4, CNTNAP3, CNTN4, CXCL12, TNXB, CTSE, OLFM4, KRT5, KRT6A, and IDO2, was then assessed to determine whether the expression of each gene increased, decreased, or underwent no significant change due to administration of the compound or placebo.

[7] = system: uterine contractions; test: Uterine contractions after single dose versus placebo; assay type: in vivo, human
[8] = system: spontaneous uterine contractions; settings: same vehicle, same model organism; cited from earlier work
[9] = system: healthy female volunteers; test: uterine contractions and endometrial blood flow in clinical trial of Example 4; assay type: in vivo, human; settings: single oral dose of 900 mg or 1,800 mg
Description: as §2
These assessments included measurements of uterine contractions by ultrasound and uterine perfusion by a 3D-power Doppler technique.
Mean and median changes in uterine contraction frequency and endometrial vascularity indices (particularly, endometrial flow index (FI), vascularity index (VI), and vascularity flow index (VFI)) were calculated. […] Differences in endometrial mRNA expression were identified and assessed for statistical significance.

[10] = target: CYP2C19 (Homo sapiens, UniProt P33261); test: metabolism by CYP2C19 isoform; assay type: in vitro ADME
CYP2C19, sequence (P33261 whole entry, canonical isoform): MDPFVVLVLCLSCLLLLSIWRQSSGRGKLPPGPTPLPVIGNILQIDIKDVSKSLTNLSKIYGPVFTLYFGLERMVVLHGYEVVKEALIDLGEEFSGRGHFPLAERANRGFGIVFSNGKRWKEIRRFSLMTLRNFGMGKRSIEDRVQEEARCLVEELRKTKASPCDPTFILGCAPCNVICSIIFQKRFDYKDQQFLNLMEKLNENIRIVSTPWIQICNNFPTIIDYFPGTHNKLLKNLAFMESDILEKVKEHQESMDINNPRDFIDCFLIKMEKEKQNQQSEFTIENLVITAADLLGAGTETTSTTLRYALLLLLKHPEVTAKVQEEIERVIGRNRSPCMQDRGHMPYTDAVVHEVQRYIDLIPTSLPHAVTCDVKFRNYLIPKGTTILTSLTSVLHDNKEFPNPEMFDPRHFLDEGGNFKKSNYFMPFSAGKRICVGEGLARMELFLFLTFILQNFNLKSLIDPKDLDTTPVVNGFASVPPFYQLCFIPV
Description: as §1

[11] = target: CYP2D6 (Homo sapiens, UniProt P10635); test: metabolism by CYP2D6 isoform; assay type: in vitro ADME
CYP2D6, sequence (P10635 whole entry, canonical isoform): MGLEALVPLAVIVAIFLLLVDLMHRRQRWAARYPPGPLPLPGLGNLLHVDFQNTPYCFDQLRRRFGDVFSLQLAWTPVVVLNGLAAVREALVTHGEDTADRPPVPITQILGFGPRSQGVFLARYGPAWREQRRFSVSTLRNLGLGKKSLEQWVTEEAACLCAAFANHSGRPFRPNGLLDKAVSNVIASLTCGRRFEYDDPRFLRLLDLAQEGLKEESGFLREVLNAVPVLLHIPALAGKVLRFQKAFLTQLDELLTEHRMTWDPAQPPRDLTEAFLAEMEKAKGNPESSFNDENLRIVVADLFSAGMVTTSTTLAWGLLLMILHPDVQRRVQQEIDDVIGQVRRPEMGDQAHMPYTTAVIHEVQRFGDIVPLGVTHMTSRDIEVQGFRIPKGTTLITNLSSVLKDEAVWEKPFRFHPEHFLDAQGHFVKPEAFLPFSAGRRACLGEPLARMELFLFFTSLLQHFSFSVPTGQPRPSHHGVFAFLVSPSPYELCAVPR
Description: as §1

[12] = 1,800 mg dose, within 24 hours of administration

CYP3A4, sequence (P08684 whole entry, canonical isoform): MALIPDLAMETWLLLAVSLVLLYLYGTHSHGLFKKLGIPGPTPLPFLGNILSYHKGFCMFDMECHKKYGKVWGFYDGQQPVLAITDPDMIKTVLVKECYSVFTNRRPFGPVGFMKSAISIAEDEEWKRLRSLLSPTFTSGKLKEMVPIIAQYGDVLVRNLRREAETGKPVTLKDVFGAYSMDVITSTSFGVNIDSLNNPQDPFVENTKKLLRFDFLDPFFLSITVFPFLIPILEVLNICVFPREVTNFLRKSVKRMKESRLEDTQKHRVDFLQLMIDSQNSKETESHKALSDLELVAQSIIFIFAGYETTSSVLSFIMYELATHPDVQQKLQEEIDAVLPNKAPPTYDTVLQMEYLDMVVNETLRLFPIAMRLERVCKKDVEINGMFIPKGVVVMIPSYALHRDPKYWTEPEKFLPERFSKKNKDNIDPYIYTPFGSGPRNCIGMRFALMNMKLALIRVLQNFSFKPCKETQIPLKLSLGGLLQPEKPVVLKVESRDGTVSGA

- time to maximum concentration [5]: about 4 hours
Structure (SMILES): CO/N=C1/C[C@@H](CO)N(C(=O)c2ccc(-c3ccccc3C)cc2)C1 [Compound (II), (3Z,5S)-5-(hydroxymethyl)-1-[(2′-methyl-1,1′-biphenyl-4-yl)carbonyl]pyrrolidin-3-one O-methyloxime]
- preferential metabolism by cytochrome P450 isoform [1]: preferentially metabolized by the CYP3A4 isoform of cytochrome P450
- stability of crystal form [2]: enhanced stability to aqueous media and physical stress
- Endometrial Fl ([3]; 900 mg dose, 24-hour time point (p=0.0502)): significant increases
- increase in median endometrial VFI ([3]; 900 mg dose): approximately 3 fold
- endometrial VI versus placebo ([3]; 1,800 mg dose, 8-hour time point (p=0.0714)): substantial increase
- Endometrial Fl ([3]; 1,800 mg dose, 24-hour time point (p=0.0625)): significant increases
- increase in median endometrial VFI ([3]; 1,800 mg dose): approximately 3 fold
- absorption kinetics upon administration to a subject [4]: rapid absorption kinetics
- differences in mRNA expression in endometrial biopsy tissue compared to placebo ([6]; 900 mg dose): No differences
- number of mRNAs downregulated [6, 12]: 5
- number of mRNAs upregulated [6, 12]: 5
- number of mRNAs significantly differentially expressed ([6]; 1,800 mg dose, within 24 hours of administration, adjusted p<0.05): 10
- proportion of subjects showing less than one uterine contraction per minute versus placebo ([7]; 900 mg dose, 24-hour time point only (p=0.0437)): significant difference
- number of uterine contractions per minute versus placebo ([7]; 900 mg dose, all time points (p>0.10)): no significant difference
- proportion of subjects showing less than one uterine contraction per minute versus placebo ([7]; 1,800 mg dose, 8-hour time point (p=0.0121)): significance was seen
- number of uterine contractions per minute versus placebo ([7]; 1,800 mg dose, from the 4-hour time point onwards (p=0.0923 at 4 h, p=0.0081 at 8 h)): contraction-reducing effects were observed
- inhibitory activity with respect to uterine contraction, compared with (3E) diastereomer [8]: markedly higher than that of the substantially pure (3E) diastereomer
- effect on uterine contractions ([9]; FIG. 7): decrease uterine contractions
- effect on endometrial blood flow (FI, VI, VFI) ([9]; FIGS. 8-10): marked and sustained increase in endometrial blood flow

Structure (SMILES): CO/N=C1\C[C@@H](CO)N(C(=O)c2ccc(-c3ccccc3C)cc2)C1 [(3E) isomer, (3E,5S)-5-(hydroxymethyl)-1-[(2′-methyl-1,1′-biphenyl-4-yl)carbonyl]pyrrolidin-3-one O-methyloxime]
- preferential metabolism by cytochrome P450 isoform [10]: preferentially metabolized by the CYP2D6 and CYP2C19 isoforms of cytochrome P450
- preferential metabolism by cytochrome P450 isoform [11]: preferentially metabolized by the CYP2D6 and CYP2C19 isoforms of cytochrome P450
